Structures can show the parent of a compound that is named as a salt.
These molecules were tested against T1, PDGFR-β (Homo sapiens, UniProt P09619) (assay: Biochemical PDGFR assay (ELISA, PDGFR-β expressing NIH 3T3 cell lysate)). Details: read-out: bio PDGF IC50.
T1 construct: host or cells: NIH 3T3
Method in brief: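 Phosphorylation was read by ELISA (anti-phosphotyrosine serum, peroxidase secondary, ABTS at 410 nm) after a 30 min room-temperature reaction with 20 μM ATP, EDTA-stopped. Kinase was lysate-derived PDGFR-β (NIH 3T3) immobilised via 28D4C10 antibody, compound added 30 min before ATP.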

T1 sequence (P09619 33-1106): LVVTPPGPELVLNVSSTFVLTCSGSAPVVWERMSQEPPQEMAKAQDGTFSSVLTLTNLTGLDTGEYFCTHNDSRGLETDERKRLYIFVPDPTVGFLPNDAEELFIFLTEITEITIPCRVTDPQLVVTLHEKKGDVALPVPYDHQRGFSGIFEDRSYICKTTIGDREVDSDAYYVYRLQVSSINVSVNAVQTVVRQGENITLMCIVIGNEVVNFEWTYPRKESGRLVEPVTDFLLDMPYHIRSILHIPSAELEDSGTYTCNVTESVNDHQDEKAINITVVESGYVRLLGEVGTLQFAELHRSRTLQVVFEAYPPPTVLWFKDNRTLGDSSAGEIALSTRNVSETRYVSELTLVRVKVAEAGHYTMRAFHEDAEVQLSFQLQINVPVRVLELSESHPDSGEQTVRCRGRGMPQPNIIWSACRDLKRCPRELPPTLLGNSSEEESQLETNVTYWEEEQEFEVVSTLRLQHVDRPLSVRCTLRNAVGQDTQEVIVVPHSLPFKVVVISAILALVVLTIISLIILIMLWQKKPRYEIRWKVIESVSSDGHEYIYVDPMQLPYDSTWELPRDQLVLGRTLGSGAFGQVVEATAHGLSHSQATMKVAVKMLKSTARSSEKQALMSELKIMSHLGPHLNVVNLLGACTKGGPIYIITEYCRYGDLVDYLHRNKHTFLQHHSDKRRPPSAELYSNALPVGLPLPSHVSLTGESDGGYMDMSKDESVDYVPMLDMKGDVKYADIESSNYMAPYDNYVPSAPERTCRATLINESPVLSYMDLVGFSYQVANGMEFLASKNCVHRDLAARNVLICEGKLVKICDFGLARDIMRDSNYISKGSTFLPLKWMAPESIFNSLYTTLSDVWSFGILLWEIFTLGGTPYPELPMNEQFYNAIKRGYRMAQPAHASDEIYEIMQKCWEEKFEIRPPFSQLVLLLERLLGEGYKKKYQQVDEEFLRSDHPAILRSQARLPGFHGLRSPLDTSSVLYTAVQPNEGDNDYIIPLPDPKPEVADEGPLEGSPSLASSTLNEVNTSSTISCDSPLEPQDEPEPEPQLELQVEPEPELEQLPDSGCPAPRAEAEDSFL

Compound	IC50 [µM]
COc1ccc(C=C2C(=O)Nc3cc(NC(C)=O)ccc32)cc1-c1cccc(NC(C)=O)c1 (mixture of isomers) [Example 63, N-[3-(3′-Acetylamino-6-methoxybiphenyl-3-ylmethylene)-2-oxo-2,3-dihydro-1H-indol-6-yl]-acetamide]	> 100
CC1(C)CCc2cc(C=C3C(=O)Nc4ccc(Br)cc43)ccc2O1 (racemic) [Example 34, 5-Bromo-3-(2,2-dimethylchroman-6-ylmethylene)-1,3-dihydroindol-2-one]	56.7
CNS(=O)(=O)c1ccc2c(c1)C(=Cc1[nH]c3ccccc3c1C)C(=O)N2 (racemic) [Example 154, 3-(3-Methyl-1H-indol-2-ylmethylene)-2-oxo-2,3-dihydro-1H-indole-5-sulfonic acid methylamide]	> 100
COc1ccc(/C=C2/C(=O)Nc3ccc(F)cc32)cc1C1CCCC1 [Example 11, 3-(3-Cyclopentyl-4-methoxybenzylidene)-5-fluoro-1,3-dihydroindol-2-one]	> 100
COc1ccc(/C=C2/C(=O)Nc3ccc(Br)cc32)cc1-c1ccccc1 [Example 13, 5-Bromo-3-(6-methoxybiphenyl-3-ylmethylene)-1,3-dihydroindol-2-one]	> 100
CC1(C)CCc2cc(/C=C3/C(=O)Nc4ccc(Cl)cc43)ccc2O1 [Example 15, 5-Chloro-3-(2,2-dimethyl-chroman-6-ylmethylene)-1,3-dihydroindol-2-one]	26.5
CC(=O)Nc1ccc2c(c1)NC(=O)/C2=C/c1ccc(OCCN2CCOCC2)c(C2CCCCC2)c1 [Example 16, N-{3-[3-Cyclohexyl-4-(2-morpholin-4-ylethoxy)-benzylidene]-2-oxo-2,3-dihydro-1H-indol-6-yl}-acetamide]	> 100
COc1ccc(/C=C2/C(=O)Nc3cc(NC(C)=O)ccc32)cc1-c1ccsc1 [Example 18, N-[3-(4-Methoxy-3-thiophene-3-ylbenzylidene)-2-oxo-2,3-dihydro-1H-indol-6-yl]-acetamide]	86.9
CC(C)c1cc(/C=C2/C(=O)Nc3ccc(Cl)cc32)cc(C(C)C)c1OCCN1CCOCC1 [Example 24, 5-chloro-3-[3,5-diisopropyl-4-(2-morpholin-4-ylethoxy)-benzylidene]-1,3-dihydroindol-2-one]	> 100
COc1cc(C)c(C=C2C(=O)Nc3cc(NC(C)=O)ccc32)cc1C(C)C [Example 27, N-[3-(5-Isopropyl-4-methoxy-2-methyl-benzylidene)-2-oxo-2,3-dihydro-1H-indol-6-yl]-acetamide]	> 100
COc1ccc(C=C2C(=O)Nc3ccccc32)cc1-c1cccc(NC(C)=O)c1 [Example 29, N-[2′-Methoxy-5′-(2-oxo-1,2-dihydroindol-3-ylidenemethyl)-biphenyl-3-yl]-acetamide]	> 100
COc1cc(C)c(/C=C2/C(=O)Nc3ccc(F)cc32)cc1C(C)C [Example 30, 5-Fluoro-3-(5-isopropyl-4-methoxy-2-methyl-benzylidene)-1,3-dihydroindol-2-one]	> 100
COc1ccc(/C=C2/C(=O)Nc3cc(NC(C)=O)ccc32)cc1-c1cccs1 [Example 31, N-[3-(4-Methoxy-3-thiophen-2-ylbenzylidene)-2-oxo-2,3-dihydro-1H-indol-6-yl]-acetamide]	> 100
CC(=O)Nc1ccc2c(c1)NC(=O)/C2=C\c1ccc2c(c1)CCC(C)(C)O2 [Example 33, N-[3-(2,2-Dimethylchroman-6-ylmethylene)-2-oxo-2,3-dihydro-1H-indol-6-yl]-acetamide]	> 100
COc1ccc(/C=C2/C(=O)Nc3ccccc32)cc1-c1ccsc1 [Example 35, 3-(4-Methoxy-3-thiophen-3-ylbenzylidene)-1,3-dihydroindol-2-one]	> 100
COc1cc(C)c(/C=C2/C(=O)Nc3ccc(Br)cc32)cc1C(C)C [Example 36, 5-Bromo-3-(5-isopropyl-4-methoxy-2-methyl-benzylidene)-1,3-dihydroindol-2-one]	> 100
COc1ccc(/C=C2/C(=O)Nc3ccc(F)cc32)cc1-c1ccccc1 [Example 37, 5-Fluoro-3-(6-methoxybiphenyl-3-ylmethylene)-1,3-dihydroindol-2-one]	> 100
COc1cc(/C=C2/C(=O)Nc3ccccc32)c(-c2cccs2)cc1OC [Example 39, 3-(4,5-Dimethoxy-2-thiophen-2-ylbenzylidene)-1,3-dihydroindol-2-one]	> 100
CC(=O)Nc1ccc2c(c1)NC(=O)/C2=C/c1ccc(OCCN2CCOCC2)c(-c2cccs2)c1 [Example 40, N-{3-[4-(2-Morpholin-4-ylethoxy)-3-thiophen-2-ylbenzylidene]-2-oxo-2,3-dihydro-1H-indol-6-yl}-acetamide]	> 100
Cc1cccc2c1/C(=C/c1ccc3c(c1)CCC(C)(C)O3)C(=O)N2 [Example 41, 3-(2,2-Dimethylchroman-6-ylmethylene)-4-methyl-1,3-dihydroindol-2-one]	> 100

Compound	IC50 [µM]
O=C1Nc2ccc(F)cc2/C1=C\c1ccc2c(c1)CCO2 [Example 42, 3-(2,3-Dihydrobenzofuran-5-ylmethylene)-5-fluoro-1,3-dihydroindol-2-one]	43.1
COc1ccc(/C=C2/C(=O)Nc3ccc(F)cc32)cc1C1CCCCC1 [Example 43, 3-(3-Cyclohexyl-4-methoxybenzylidene)-5-fluoro-1,3-dihydroindol-2-one]	11
COc1ccc(/C=C2/C(=O)Nc3ccc(F)cc32)cc1C(C)C [Example 44, 5-Fluoro-3-(3-isopropyl-4-methoxybenzylidene)-1,3-dihydroindol-2-one]	> 100
CCOc1cccc(-c2cc(C=C3C(=O)Nc4ccccc43)ccc2OC)c1 [Example 46, 3-(3′-Ethoxy-6-methoxybiphenyl-3-ylmethylene)-1,3-dihydroindol-2-one]	> 100
COc1cc(C=C2C(=O)Nc3ccccc32)c(-c2ccccc2OC)cc1OC [Example 49, 3-(4,5,2′-Trimethoxybiphenyl-2-ylmethylene)-1,3-dihydroindol-2-one]	> 100
CC(=O)Nc1ccc2c(c1)NC(=O)/C2=C/c1ccc(OCCN2CCOCC2)c(-c2ccsc2)c1 [Example 50, N-{3-[4-(2-Morpholin-4-ylethoxy)-3-thiophen-3-ylbenzylidene]-2-oxo-2,3-dihydro-1H-indol-6-yl}-acetamide]	> 100
CC(=O)Nc1ccc2c(c1)NC(=O)/C2=C/c1ccc(OCCN2CCOCC2)c(C(C)(C)C)c1 [Example 55, N-{3-[3-tert-Butyl-4-(2-morpholin-4-ylethoxy)-benzylidene]-2-oxo-2,3-dihydro-1H-indol-6-yl}-acetamide]	> 100
CC(C)c1cc(/C=C2/C(=O)Nc3ccc(Br)cc32)cc(C(C)C)c1OCCN1CCOCC1 [Example 57, 5-Bromo-3-[3,5-diisopropyl-4-(2-morpholin-4-ylethoxy)benzylidene]-1,3-dihydroindol-2-one]	> 100
CCOc1cccc(-c2cc(OC)c(OC)cc2/C=C2/C(=O)Nc3ccccc32)c1 [Example 58, 3-(3′-Ethoxy-4,5-dimethoxybiphenyl-2-ylmethylene)-1,3-dihydroindol-2-one]	> 100
COc1ccc(/C=C2/C(=O)Nc3ccc(Cl)cc32)cc1-c1cccs1 [Example 59, 5-chloro-3-(4-Methoxy-3-thiophen-2-ylbenzylidene)-1,3-dihydroindol-2-one]	> 100
COc1ccc(/C=C2/C(=O)Nc3ccc(Cl)cc32)cc1-c1cccnc1 [Example 60]	24.5
COc1cccc(-c2cc(OC)c(OC)cc2/C=C2/C(=O)Nc3ccc(Cl)cc32)c1 [Example 61, 5-Chloro-3-(4,5-3′-Trimethoxybiphenyl-2-ylmethylene)-1,3-dihydroindol-2-one]	> 100
COc1cc(/C=C2/C(=O)Nc3ccccc32)c(-c2ccc3ccccc3c2)cc1OC [Example 62, 3-(4,5-Dimethoxy-2-naphthalen-2-ylbenzylidene)-1,3-dihydroindol-2-one]	> 100
COc1ccc2c(c1)NC(=O)/C2=C/c1ccc(OC)c(-c2ccsc2)c1 [Example 64, 6-Methoxy-3-(4-methoxy-3-thiophen-3-ylbenzylidene)-1,3-dihydroindol-2-one]	> 100
Cc1cc(CCC(=O)O)c(/C=C2\C(=O)Nc3cc(-c4ccc(F)cc4)ccc32)[nH]1 [Example 107, 3-{2-[6-(4-Fluorophenyl)-2-oxo-1,2-dihydroindol-3-ylidenemethyl]-5-methyl-1H-pyrrol-3-yl}propionic acid]	< 0.78
CCOC(=O)c1c(C)[nH]c(/C=C2\C(=O)Nc3cc(-c4ccc(F)cc4)ccc32)c1CCC(=O)O [Example 108, 4-(2-Carboxyethyl)-5-[6-(4-fluorophenyl)-2-oxo-1,2-dihydro-indol-3-ylidenemethyl]-2-methyl-1H-pyrrole-3-carboxylic acid ethyl ester]	2.97
COc1ccccc1-c1ccc2c(c1)NC(=O)/C2=C\c1[nH]c(C)cc1CCC(=O)O [Example 109, 3-{2-[6-(2-Methoxyphenyl)-2-oxo-1,2-dihydroindol-3-ylidenemethyl]-5-methyl-1H-pyrrol-3-yl}-propionic acid]	2.79
CCOC(=O)c1c(C)[nH]c(/C=C2\C(=O)Nc3cc(-c4ccccc4OC)ccc32)c1CCC(=O)O [Example 110, 4-(2-Carboxyethyl)-5-[6-(2-methoxyphenyl)-2-oxo-1,2-dihydro-indol-3-ylidenemethyl]-2-methyl-1H-pyrrol-3-yl-carboxylic acid ethyl ester]	3.15
Cc1cc(CCC(=O)O)c(/C=C2\C(=O)Nc3ccc(Cl)cc32)[nH]1 [Example 111, 3-[2-(5-Chloro-2-oxo-1,2-dihydroindol-3-ylidenemethyl)-5-methyl-1H-pyrrol-3-yl]propionic acid]	0.01
Cc1c(/C=C2\C(=O)Nc3ccc(C(=O)O)cc32)[nH]c2ccccc12 [Example 156, 3-(3-Methyl-1H-indol-2-ylmethylene)-2-oxo-2,3-dihydro-1H-indole-5-carboxylic acid (piperidine salt)]	8.32
